Tests used:
Assay type in all cases: in vivo
[1] = tested on: barnyardgrass (Echinochloa crus-galli); experiment: Test A pre-/postemergence plant response
Source text: (§1) Seeds of species selected from barnyardgrass (Echinochloa crus-galli), large crabgrass (Digitaria sanguinalis), giant foxtail (Setaria faberi), blackgrass (Alopecurus myosuroides), canarygrass (Phalaris minor), morningglory (Ipomoea coccinea), pigweed (Amaranthus retroflexus), velvetleaf (Abutilon theophrasti), wheat (Triticum aestivum), and corn (Zea mays) were planted into a blend of loam soil and sand and treated preemergence with a directed soil spray using test chemicals formulated in a non-phytotoxic solvent mixture which included a surfactant. At the same time these species were also treated with postemergence applications of test chemicals formulated in the same manner.
(§2) Plants ranged in height from 2 to 10 cm and were in the one- to two-leaf stage for the postemergence treatment. Treated plants and untreated controls were maintained in a greenhouse for approximately 10 days, after which time all treated plants were compared to untreated controls and visually evaluated for injury. Plant response ratings, summarized in Table A, are based on a 0 to 100 scale where 0 is no effect and 100 is complete control. A dash (-) response means no test results.

[2] = tested on: corn (Zea mays); experiment: Test A pre-/postemergence plant response
Source text: as §1, §2

[3] = tested on: giant foxtail (Setaria faberi); experiment: Test A pre-/postemergence plant response
Source text: as §1, §2

[4] = tested on: large crabgrass (Digitaria sanguinalis); experiment: Test A pre-/postemergence plant response
Source text: as §1, §2

[5] = tested on: morningglory (Ipomoea coccinea); experiment: Test A pre-/postemergence plant response
Source text: as §1, §2

[6] = tested on: pigweed (Amaranthus retroflexus); experiment: Test A pre-/postemergence plant response
Source text: as §1, §2

[7] = tested on: velvetleaf (Abutilon theophrasti); experiment: Test A pre-/postemergence plant response
Source text: as §1, §2

[8] = tested on: wheat (Triticum aestivum); experiment: Test A pre-/postemergence plant response
Source text: as §1, §2

[9] = tested on: barnyardgrass (Echinochloa crus-galli); experiment: Test B flooded paddy test plant response
How it was run: (§3)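 Step one: raise plants to 2 leaves. Step two: flood pots 3 cm over the soil and apply compound into the water, keeping this depth. Step three: after 13–15 greenhouse days, score visually versus controls, 0–100, where 100 means complete control.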

[10] = tested on: ducksalad (Heteranthera limosa); experiment: Test B flooded paddy test plant response
How it was run: as §3

[11] = tested on: rice (Oryza sativa); experiment: Test B flooded paddy test plant response
How it was run: as §3

[12] = tested on: umbrella sedge (Cyperus difformis); experiment: Test B flooded paddy test plant response
How it was run: as §3

[13] = Postemergence, 125 g ai/ha, 0 to 100 scale, 0 no effect, 100 complete control
[14] = Postemergence, 500 g ai/ha, 0 to 100 scale, 0 no effect, 100 complete control
[15] = Preemergence, 125 g ai/ha, 0 to 100 scale (0 no effect, 100 complete control)
[16] = Preemergence, 500 g ai/ha, 0 to 100 scale (0 no effect, 100 complete control)
[17] = Flood (flooded paddy test), 62 g ai/ha, scale 0 to 100, 0 no effect, 100 complete control
[18] = Flood (flooded paddy test), 125 g ai/ha, scale 0 to 100, 0 no effect, 100 complete control
[19] = Flood (flooded paddy test), 250 g ai/ha, scale 0 to 100, 0 no effect, 100 complete control
[20] = Flood, 31 g ai/ha, scale 0 to 100
[21] = Postemergence, 31 g ai/ha, 0 to 100 scale, 0 no effect, 100 complete control
[22] = Preemergence, 31 g ai/ha, 0 to 100 scale, 0 is no effect, 100 is complete control

Cc1cc(-c2ccc(C(F)(F)F)cc2)nn1-c1c(O)c(C(F)(F)F)nn(C)c1=O [Compound 42]
Plant response rating, Barnyardgrass [1, 13]: 0
Plant response rating, Barnyardgrass [1, 14]: 0
Plant response rating, Barnyardgrass [1, 15]: 0
Plant response rating, Barnyardgrass [1, 16]: 0
Plant response rating, Corn [2, 13]: 20
Plant response rating, Corn [2, 14]: 20
Plant response rating, Corn [2, 15]: 0
Plant response rating, Corn [2, 16]: 0
Plant response rating, Foxtail, Giant [3, 13]: 0
Plant response rating, Foxtail, Giant [3, 14]: 10
Plant response rating, Foxtail, Giant [3, 15]: 0
Plant response rating, Foxtail, Giant [3, 16]: 0
Plant response rating, Crabgrass, Large [4, 13]: 0
Plant response rating, Crabgrass, Large [4, 14]: 0
Plant response rating, Crabgrass, Large [4, 15]: 0
Plant response rating, Crabgrass, Large [4, 16]: 0
Plant response rating, Morningglory [5, 13]: 0
Plant response rating, Morningglory [5, 14]: 0
Plant response rating, Morningglory [5, 15]: 0
Plant response rating, Morningglory [5, 16]: 0
Plant response rating, Pigweed [6, 13]: 0
Plant response rating, Pigweed [6, 14]: 0
Plant response rating, Pigweed [6, 15]: 0
Plant response rating, Pigweed [6, 16]: 0
Plant response rating, Velvetleaf [7, 13]: 0
Plant response rating, Velvetleaf [7, 14]: 0
Plant response rating, Velvetleaf [7, 15]: 0
Plant response rating, Velvetleaf [7, 16]: 0
Plant response rating, Wheat [8, 13]: 0
Plant response rating, Wheat [8, 14]: 10
Plant response rating, Wheat [8, 15]: 0
Plant response rating, Wheat [8, 16]: 0
Plant response rating, Barnyardgrass [9, 17]: 0
Plant response rating, Barnyardgrass [9, 18]: 0
Plant response rating, Barnyardgrass [9, 19]: 0
Plant response rating, Barnyardgrass [9, 20]: 0
Plant response rating, Ducksalad [10, 17]: 0
Plant response rating, Ducksalad [10, 18]: 0
Plant response rating, Ducksalad [10, 19]: 0
Plant response rating, Ducksalad [10, 20]: 0
Plant response rating, Rice [11, 17]: 0
Plant response rating, Rice [11, 18]: 0
Plant response rating, Rice [11, 19]: 0
Plant response rating, Rice [11, 20]: 0
Plant response rating, Sedge, Umbrella [12, 17]: 0
Plant response rating, Sedge, Umbrella [12, 18]: 0
Plant response rating, Sedge, Umbrella [12, 19]: 0
Plant response rating, Sedge, Umbrella [12, 20]: 0

CCn1ncc(O)c(-c2cn(-c3ccc(Cl)cc3)nc2C)c1=O [Compound 65]
Plant response rating, Barnyardgrass [1, 13]: 0
Plant response rating, Barnyardgrass [1, 14]: 0
Plant response rating, Barnyardgrass [1, 15]: 0
Plant response rating, Barnyardgrass [1, 16]: 0
Plant response rating, Corn [2, 13]: 0
Plant response rating, Corn [2, 14]: 0
Plant response rating, Corn [2, 15]: 0
Plant response rating, Corn [2, 16]: 0
Plant response rating, Foxtail, Giant [3, 13]: 0
Plant response rating, Foxtail, Giant [3, 14]: 20
Plant response rating, Foxtail, Giant [3, 15]: 0
Plant response rating, Foxtail, Giant [3, 16]: 90
Plant response rating, Crabgrass, Large [4, 13]: 0
Plant response rating, Crabgrass, Large [4, 14]: 20
Plant response rating, Crabgrass, Large [4, 15]: 0
Plant response rating, Crabgrass, Large [4, 16]: 0
Plant response rating, Morningglory [5, 13]: 0
Plant response rating, Morningglory [5, 14]: 0
Plant response rating, Morningglory [5, 15]: 0
Plant response rating, Morningglory [5, 16]: 0
Plant response rating, Pigweed [6, 13]: 0
Plant response rating, Pigweed [6, 14]: 0
Plant response rating, Pigweed [6, 15]: 0
Plant response rating, Pigweed [6, 16]: 0
Plant response rating, Velvetleaf [7, 13]: 0
Plant response rating, Velvetleaf [7, 14]: 0
Plant response rating, Velvetleaf [7, 15]: 0
Plant response rating, Velvetleaf [7, 16]: 0
Plant response rating, Wheat [8, 13]: 0
Plant response rating, Wheat [8, 14]: 0
Plant response rating, Wheat [8, 15]: 0
Plant response rating, Wheat [8, 16]: 0
Plant response rating, Barnyardgrass [9, 17]: 0
Plant response rating, Barnyardgrass [9, 18]: 0
Plant response rating, Barnyardgrass [9, 19]: 0
Plant response rating, Barnyardgrass [9, 20]: 0
Plant response rating, Ducksalad [10, 17]: 0
Plant response rating, Ducksalad [10, 18]: 0
Plant response rating, Ducksalad [10, 19]: 40
Plant response rating, Ducksalad [10, 20]: 0
Plant response rating, Rice [11, 17]: 0
Plant response rating, Rice [11, 18]: 0
Plant response rating, Rice [11, 19]: 15
Plant response rating, Rice [11, 20]: 0
Plant response rating, Sedge, Umbrella [12, 17]: 0
Plant response rating, Sedge, Umbrella [12, 18]: 0
Plant response rating, Sedge, Umbrella [12, 19]: 80
Plant response rating, Sedge, Umbrella [12, 20]: 0

Cc1cc(-c2ccc(Cl)cc2)nn1-c1c(OC(=O)N(C)C)cnn(C)c1=O [Compound 64]
Plant response rating, Barnyardgrass [1, 21]: 0
Plant response rating, Barnyardgrass [1, 13]: 10
Plant response rating, Barnyardgrass [1, 22]: 0
Plant response rating, Barnyardgrass [1, 15]: 0
Plant response rating, Corn [2, 21]: 0
Plant response rating, Corn [2, 13]: 60
Plant response rating, Corn [2, 22]: 0
Plant response rating, Corn [2, 15]: 30
Plant response rating, Foxtail, Giant [3, 21]: 30
Plant response rating, Foxtail, Giant [3, 13]: 80
Plant response rating, Foxtail, Giant [3, 22]: 0
Plant response rating, Foxtail, Giant [3, 15]: 50
Plant response rating, Crabgrass, Large [4, 21]: 0
Plant response rating, Crabgrass, Large [4, 13]: 40
Plant response rating, Crabgrass, Large [4, 22]: 0
Plant response rating, Crabgrass, Large [4, 15]: 50
Plant response rating, Morningglory [5, 21]: 0
Plant response rating, Morningglory [5, 13]: 0
Plant response rating, Morningglory [5, 22]: 0
Plant response rating, Morningglory [5, 15]: 0
Plant response rating, Pigweed [6, 21]: 0
Plant response rating, Pigweed [6, 13]: 0
Plant response rating, Pigweed [6, 22]: 0
Plant response rating, Pigweed [6, 15]: 0
Plant response rating, Velvetleaf [7, 21]: 0
Plant response rating, Velvetleaf [7, 13]: 0
Plant response rating, Velvetleaf [7, 22]: 0
Plant response rating, Velvetleaf [7, 15]: 0
Plant response rating, Wheat [8, 21]: 0
Plant response rating, Wheat [8, 13]: 0
Plant response rating, Wheat [8, 22]: 0
Plant response rating, Wheat [8, 15]: 0
Plant response rating, Barnyardgrass [9, 17]: 0
Plant response rating, Barnyardgrass [9, 19]: 0
Plant response rating, Ducksalad [10, 17]: 0
Plant response rating, Ducksalad [10, 19]: 0
Plant response rating, Rice [11, 17]: 0
Plant response rating, Rice [11, 19]: 0
Plant response rating, Sedge, Umbrella [12, 17]: 0
Plant response rating, Sedge, Umbrella [12, 19]: 0

Cc1cc(-n2cc(Cl)cn2)ccc1-c1c(O)cnn(C)c1=O [Compound 60]
Plant response rating, Barnyardgrass [1, 13]: 30
Plant response rating, Barnyardgrass [1, 14]: 90
Plant response rating, Barnyardgrass [1, 15]: 70
Plant response rating, Barnyardgrass [1, 16]: 100
Plant response rating, Corn [2, 13]: 40
Plant response rating, Corn [2, 14]: 90
Plant response rating, Corn [2, 15]: 50
Plant response rating, Corn [2, 16]: 90
Plant response rating, Foxtail, Giant [3, 13]: 50
Plant response rating, Foxtail, Giant [3, 14]: 80
Plant response rating, Foxtail, Giant [3, 15]: 80
Plant response rating, Foxtail, Giant [3, 16]: 100
Plant response rating, Crabgrass, Large [4, 13]: 20
Plant response rating, Crabgrass, Large [4, 14]: 60
Plant response rating, Crabgrass, Large [4, 15]: 20
Plant response rating, Crabgrass, Large [4, 16]: 80
Plant response rating, Morningglory [5, 13]: 0
Plant response rating, Morningglory [5, 14]: 0
Plant response rating, Morningglory [5, 15]: 0
Plant response rating, Morningglory [5, 16]: 0
Plant response rating, Pigweed [6, 13]: 0
Plant response rating, Pigweed [6, 14]: 0
Plant response rating, Pigweed [6, 15]: 0
Plant response rating, Pigweed [6, 16]: 0
Plant response rating, Velvetleaf [7, 13]: 0
Plant response rating, Velvetleaf [7, 14]: 0
Plant response rating, Velvetleaf [7, 15]: 0
Plant response rating, Velvetleaf [7, 16]: 0
Plant response rating, Wheat [8, 13]: 0
Plant response rating, Wheat [8, 14]: 50
Plant response rating, Wheat [8, 15]: 0
Plant response rating, Wheat [8, 16]: 50
Plant response rating, Barnyardgrass [9, 17]: 0
Plant response rating, Barnyardgrass [9, 19]: 30
Plant response rating, Ducksalad [10, 17]: 0
Plant response rating, Ducksalad [10, 19]: 0
Plant response rating, Rice [11, 17]: 0
Plant response rating, Rice [11, 19]: 30
Plant response rating, Sedge, Umbrella [12, 17]: 0
Plant response rating, Sedge, Umbrella [12, 19]: 0

Reference: US20100267561A1, “HERBICIDAL PYRIDAZINONE DERIVATIVES” (priority 2007, published 2010)
